Data: US20040247699A1, “Method for the prevention or treatment of overweight in mammals” (priority 2002, published 2004)

Test: Effects on physical activity (ambulatory counts)
Details: 12.5 mg caffeine per kg rat oral, period when rats are normally asleep
Protocol: In the study as described in example 1, the physical activity of the animals was determined by monitoring ambulatory counts.
The effects of caffeine on physical activity was tested in rats and compared to placebo (water). In a placebo controlled cross-over design as described in example 1, the effects of administration of either 12.5 mg caffeine per kg of rat or water on physical activity was determined. Physical activity of the animals was determined by monitoring ambulatory counts.
Results are shown as the average ambulatory counts per 26 minutes.

In the case of `Cn1c(=O)c2c(ncn2C)n(C)c1=O` [caffeine], the “ambulatory counts per 26 minutes compared to placebo” value is reported as “ambulatory counts increase”.
